In PMC8365602 (Journal of Medicinal Chemistry, 2021):

Columns and labels:
[1] = biological target: T1, 5-LOX (Homo sapiens, UniProt P09917); test: Cell-free 5-LOX activity (isolated human recombinant enzyme)
T1 sequence (P09917 1-674): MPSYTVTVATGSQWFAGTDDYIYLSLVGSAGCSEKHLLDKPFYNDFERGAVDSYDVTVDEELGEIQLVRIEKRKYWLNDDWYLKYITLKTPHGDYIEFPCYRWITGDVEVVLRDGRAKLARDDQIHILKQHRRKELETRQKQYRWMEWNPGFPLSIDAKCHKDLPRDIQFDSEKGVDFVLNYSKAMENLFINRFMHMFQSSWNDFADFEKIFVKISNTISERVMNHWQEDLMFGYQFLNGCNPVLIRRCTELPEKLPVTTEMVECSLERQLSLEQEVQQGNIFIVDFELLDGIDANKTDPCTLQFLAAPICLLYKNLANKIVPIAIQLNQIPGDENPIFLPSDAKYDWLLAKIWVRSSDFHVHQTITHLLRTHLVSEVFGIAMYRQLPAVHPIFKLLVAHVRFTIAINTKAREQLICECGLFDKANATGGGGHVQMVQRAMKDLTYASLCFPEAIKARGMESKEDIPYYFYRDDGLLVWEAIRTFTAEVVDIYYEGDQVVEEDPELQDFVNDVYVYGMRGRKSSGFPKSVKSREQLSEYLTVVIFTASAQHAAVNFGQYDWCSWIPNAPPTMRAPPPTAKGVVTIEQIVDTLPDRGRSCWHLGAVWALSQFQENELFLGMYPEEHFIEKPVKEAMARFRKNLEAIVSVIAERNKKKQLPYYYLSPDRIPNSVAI
Method: Human recombinant 5-LOX was expressed in E. coli Bl21 (DE3) cells that were transformed with pT3–5LOX (wt 5-LOX), 5-LOX_3W (triple mutation of Trp102Ala/Trp13Ala/Trp75Ala), or 5-LOX_R (single mutant of the Arg101Asp plasmid) and purified on an ATP-agarose column (Econo-Pac, Bio-Rad, Hercules, CA) by affinity chromatography.[6],[75]
Purified 5-LOX (0.5 μg in PBS pH 7.4 containing 1 mM EDTA and 1 mM ATP) was preincubated with the vehicle (DMSO) or test compounds for 10 min and prewarmed at 37 °C.

[2] = system: PMNL; test: fMLP-induced Ca2+ influx in PMNL; type: cell-based, human
Method: PMNL (1 × 10^6) were loaded with Fura-2/AM (2 nmol, Thermo Fisher Scientific) for 45 min at 37 °C. […] Intracellular Ca^2+ concentrations were measured using a NOVOstar fluorescence microplate reader (BMG Labtech, Ortenberg, Germany) at 37 °C. The emission wavelength was set to 510 nm and the excitation wavelengths to 340 nm (Ca^2+-bound Fura-2) and 380 nm (free Fura-2).[23] To define 100% Ca^2+ influx, the difference between the maximal influx (cell lysis by Triton X-100) and minimal influx (subsequent chelation of Ca^2+ by EDTA) was measured for each experiment.

[3] = system: zymosan-induced murine peritonitis; test: Zymosan-induced peritonitis in mice; type: in vivo
Method: Male CD-1 mice (33–39 g, 6–8 weeks, Charles River Laboratories; Calco, Italy) and female BALB/c mice (20 g, 8 weeks, Charles River Laboratories) were fed with standard rodent chow and water and acclimated for 4 days at a 12 h light and 12 h dark schedule in a constant air-conditioned environment (21 ± 2 °C). Mice were randomly assigned to groups, and experiments were carried out during the light phase.
Zymosan (2 mg/mL in saline, i.p., 0.5 mL, Sigma-Aldrich) was injected at 30 min (i.p.) or 60 min (p.o.) post compound administration. Mice were sacrificed by inhalation of CO2 after another 30 min to determine LTC4 levels, lipid mediator profiles, metabolites, and vascular permeability and after 4 h to analyze LTB4 levels and cell infiltration.[72] Plasma and peritoneal exudates were collected, and cells were counted in exudates after trypan blue staining. Vascular permeability was measured by injection of Evans blue dye (40 mg/kg in saline, 0.3 mL, Sigma-Aldrich) into the tail vain directly before peritonitis induction.[72] The exudate was centrifuged (3000g, 5 min), and the absorbance was measured at 610 nm (DU730 spectrophotometer, Beckman Coulter, Krefeld, Germany). Levels of LTB4 and cysteinyl-LTs (dominated by LTC4) were quantified in the exudate by ELISA (Enzo Life Sciences, Lörrach, Germany) according to the manufacturer’s instructions. Compound 27a, its metabolites, and lipid mediators were extracted and analyzed by UPLC-MS/MS.

[4] = system: PMNL; test: Intracellular uptake by PMNL; type: cell-based, human; settings: 150 nM for 20 min
Method: Cells were centrifuged (1200g, 5 min, 4 °C) and washed thrice with PBS pH 7.4 with 0.1% fatty-acid-free BSA (Sigma-Aldrich). Compounds were extracted and analyzed by UPLC-MS/MS as described below for LCMs and derivatives. The intracellular concentrations of 27a and 12a were calculated assuming a spherical cell shape with a diameter of 13 μm (as measured using a Vi-CELL Series Cell Counter, Beckman Coulter, Krefeld, Germany) and an equal intracellular distribution. 13d (9 pmol) was used as the internal standard.

[5] = Radical scavenging activity (DPPH); settings: DPPH
Method: Compound 27a was incubated with 2,2-diphenyl-1-picrylhydrazyl (DPPH, Sigma-Aldrich; 50 mM) in ethanol for 30 min, and the absorbance was measured at 520 nm using a Multiskan Spectrum Microplate Reader (Thermo Fisher Scientific).[72] The positive control ascorbic acid (Sigma-Aldrich; 25 μM) scavenged DPPH radicals by 36 ± 11%.

[6] = 10 mg/kg i.p., 30 min post zymosan
[7] = 10 mg/kg i.p., 4 h post zymosan

With `C/C(=C\CC/C(C)=C/CC[C@]1(C)CCc2c(C)c(O)c(C)c(C)c2O1)CCC=C(CO)CO` [Compound 27a, α-amplexichromanol] the “Effect of Triton X-100 on 5-LOX inhibition” value ([1]; Triton X-100 (0.01%)) was “did not substantially impair 5-LOX inhibition”, the “Dependence of 5-LOX inhibition on substrate (arachidonic acid) concentration” value ([1]; human recombinant 5-LOX) was “independent of the substrate concentration” and the “Reversibility of 5-LOX inhibition” value ([1]; preincubation 15 min, 10-fold dilution) was “reversible”. The IC50 ([1]; read-out: 5-LOX enzyme IC50, isolated human 5-LOX, cell-free, mean ± SEM) was 0.11 ± 0.03 µM, the remaining activity at 1 µM ([1]; read-out: 5-LOX enzyme residual activity at 1 μM) was 0.1% and the “Ca2+ influx” value ([2]; 10 μM) was “substantially reduced”. The “Intracellular levels of Ca2+” value ([2]; submicromolar concentrations (≤1 μM)) was “nor influenced intracellular levels of Ca^2+”, the “Cysteinyl-LTs in the exudate” value ([3]; 3 mg/kg p.o., 30 min post zymosan) was “decreased to a basal level” and the “LTC4 levels in the exudate” value [3, 6] was “strongly decreased LTC4 levels in the exudate”. For the same compound, the Vascular permeability [3, 6] was “reduced vascular permeability”, the “Influx of cells into the peritoneal cavity” value [3, 7] was “accordingly reduced” and the “LTB4 levels in the exudate” value [3, 7] was “substantially lowered LTB4 levels”. The “Resolvin E3 levels in the exudate” value ([3]; 10 mg/kg p.o., 30 min post zymosan injection, individual mice) was “moderately increased”, the “Intracellular accumulation in PMNL” value [4] was “strongly accumulates in PMNL” and the “Concentrations with antioxidative properties (radical scavenging) versus 5-LOX inhibition” value [5] was “exceed those that effectively inhibit 5-LOX”.
